Results taken from US7973219B2, “Method for producing transgenic plants resistant to weed control compounds which disrupt the porphyrin pathways of plants” (Sumitomo Chemical Company, Limited, priority 1998, dated 2011).
Like-named read-outs stand apart in the source and are kept apart here.

Assays:
[1] = tested on: tobacco into which bchH gene was introduced; test: Leaf piece chlorophyll test, tobacco into which bchH gene was introduced; type: in vivo; settings: Nicotiana tabacum, read-out: Resistant level to test compound; for activity at 0.3 ppm: 0.30 ppm
Experimental: (§1) Then, according to the method described in Manual for Gene Manipulation of Plant (by Hirofumi UCHIMIYA, Kodan-sha Scientific, 1992), the gene was introduced into tobacco. Agrobacterium strain bearing plasmid pBIBCH was cultured at 28° C. overnight in LB medium and then leaf pieces of tobacco cultured sterilely were dipped in the liquid culture medium. The leaf pieces were cultured at room temperature for 2 days in Murashige-Skoog medium (MS-medium, described in Murasige T. and Skoog F., Physiol. Plant. (1962) 15, p 473) containing 0.8% agar, 0.1 mg/liter naphthalene acetic acid and 1.0 mg/liter benzyl aminopurine. Then, the leaf pieces were washed with sterilized water and cultured for 7 days on MS medium containing 0.8% agar, 0.1 mg/liter naphthalene acetic acid, 1.0 mg/liter benzyl aminopurine and 500 μg/ml cefotaxime. The leaf pieces were transplanted onto MS medium containing 0.8% agar, 0.1 mg/liter naphthalene acetic acid, 1.0 mg/liter benzyl aminopurine, 500 μg/ml cefotaxime and 100 μg/ml kanamycin (hereinafter referred to as selective MS medium) and cultured on the medium continuously for 4months with transplanting the tobacco leaf pieces onto fresh selective MS medium every 1 month. During culture, stem-leaf differentiated shoots were appeared from the tobacco leaf pieces, these shoots were transplanted to MS medium containing 0.8% agar, 300 μg/ml cefotaxime and 50 μg/ml kanamycin to induce roots to obtain regenerated plants. The resultant regenerated plant was transplanted and cultured on MS medium 0.8% agar and 50 μg/ml kanamycin to obtain tobacco plant into which bchH gene was introduced. Similarly, tobacco leaf pieces were infected with Agrobacterium strain bearing pNO to obtain regenerated plant from the tobacco leaf pieces and tobacco plant (hereinafter referred to as control recombinant tobacco).
(§2) The tobacco leaves into which bchH gene was introduced and control recombinant tobacco leaves obtained in Example 5 were collected and each leaf was divided into the right and left equivalent pieces along the main vein, respectively. To one piece was applied an aqueous solution containing 0.3 ppm PPO inhibitory-type herbicidal compound of Structure 8, while, to the other piece was not applied the compound. These leaf pieces were placed on MS medium containing 0.8% agar and allowed to stand at room temperature for 7 days in light place. Then, each leaf piece was ground with pestle and mortar in 5 ml of 80% aqueous acetone solution to extract chlorophyll. The extract liquid was diluted with 80% aqueous acetone solution and the absorbance was measured at 750 nm, 663 nm and 645 nm to calculate total chlorophyll content according to the method described by Macknney G., J. Biol. Chem. (1941) 140, p 315. The results obtained from 4 clones of tobacco into which bchH gene was introduced (BCH1 to 4) and control recombinant tobacco is shown in Table 4. In the table, the resistant level to the herbicidal compound was represented by percentages of the total chlorophyll content of leaf pieces treated with herbicidal compound to that of untreated leaf pieces.
(§3) The tobacco clone into which bchH gene was introduced and control recombinant tobacco were also treated in the same manner with the solution containing PPO inhibitory-type herbicidal compound represented by the above Structure 3, 7, 10, 11, 13, 17, 23, 24, 25, 27, 28, 30 or 35, and the resistant level to each herbicidal compound was measured. In the table, the resistant levels to the herbicidal compound were represented by percentages of the total chlorophyll content of leaf pieces treated with the herbicidal compound to that of untreated leaf pieces.

[2] = tested on: control recombinant tobacco; test: Leaf piece chlorophyll test, control recombinant tobacco; type: in vivo; settings: Nicotiana tabacum, read-out: Resistant level to test compound; for activity at 0.3 ppm: 0.30 ppm
Experimental: as §1, §2, §3
The level of resistance to PPO inhibitory type herbicidal compound represented by Structure 8 was confirmed quantitatively by testing tobacco into which the gene encoding the variant soybean PPO prepared in Example 13 was introduced according to the same manner as in Example 6. […]

[3] = bchH recombinant tobacco, treated vs untreated leaf pieces, Table 5
[4] = control recombinant tobacco, treated vs untreated leaf pieces, Table 5

SMILES	activity at 10 ppm [1, 3]	activity at 10 ppm [2, 4]	activity at 0.3 ppm [1, 3]	activity at 0.3 ppm [2, 4]	also measured
CCOC(=O)C(C)OC(=O)c1cc(Oc2ccc(C(F)(F)F)cc2Cl)ccc1[N+](=O)[O-] (stereo not drawn) [Structure 3]	114%	9.94%			
O=[N+]([O-])c1ccc(Oc2c(Cl)cc(Cl)cc2Cl)cc1 [Structure 7]					activity at 30 ppm ([1]; bchH recombinant tobacco, 30 ppm, treated vs untreated leaf pieces, Table 5): 89.3%; activity at 30 ppm ([2]; control recombinant tobacco, 30 ppm, treated vs untreated leaf pieces, Table 5): 8.62%
CCCCCOC(=O)COc1cc(N2C(=O)C3=C(CCCC3)C2=O)c(F)cc1Cl [Structure 10]	84%	14.9%			
C#CCN1C(=O)COc2cc(F)c(N3C(=O)C4=C(CCCC4)C3=O)cc21 [Structure 11]			78.1%	5.51%	
C#CCN1C(=O)COc2cc(F)c(-n3c(=O)cc(C(F)(F)F)n(C)c3=O)cc21 [Structure 17]			80.4%	14.3%	
C#CCOc1cc(-n2nc3n(c2=O)CCCC3)c(Cl)cc1Cl [Structure 23]					activity at 3 ppm ([1]; bchH recombinant tobacco, 3.0 ppm, treated vs untreated leaf pieces, Table 5): 106%; activity at 3 ppm ([2]; control recombinant tobacco, 3.0 ppm, treated vs untreated leaf pieces, Table 5): 5.58%
C#CCOc1cc(-n2nc(C(C)(C)C)oc2=O)c(Cl)cc1Cl [Structure 24]	129%	5.18%			
CC(C)Oc1cc(-n2nc(C(C)(C)C)oc2=O)c(Cl)cc1Cl [Structure 25]	104%	16%			
CCOC(=O)COc1cc(-n2ncc(C(F)(F)F)c(C)c2=O)c(F)cc1Cl [Structure 27]	86.8%	16.8%			
C#CCOc1cc(-n2ncc(C(F)(F)F)c(C)c2=O)c(F)cc1Cl [Structure 28]			72.2%	8.79%	
CCOC(=O)COc1cc(-c2nn(C)c(OC(F)F)c2Cl)c(F)cc1Cl [Structure 30]					activity at 3 ppm [1]: 102%; activity at 3 ppm [2]: 4.24%
C#CCN1C(=O)COc2cc(F)c(-c3cnc(C(F)(F)F)n(C)c3=O)cc21 [Structure 35]			83.3%	17.4%	
